Laboratory results as given in patent publication US5631133A, “Transition in transcriptional activation by intracellular hormone receptors at the tumor stage of dermal fibrosarcoma development” (The Regents of the University of California, priority 1995, dated 1997).

What was measured:
[1] = test system: GR and AP-1 (composite element G(26)A); assay: Transient transfection of G(26)A3-Luc composite GRE luciferase reporter, hormone responsiveness; assay type: cell-based, mouse; settings: 100 nM dexamethasone, 24 h
Source text: Where indicated, the expression vector 6RGR was co-transfected.
In view of the observed changes in GR and AP-1 activities, we next tested a composite element that requires both factors for transcriptional activation. The synthetic composite element, G(26)A, which resembles a sequence in the glucocorticoid regulatory region of the glutamine synthetase gene (Zhang and Young (1991) J. Biol. Chem., 266:24332-24338), contains the TAT GRE sequence linked through a 15 bp spacer to the collagenase AP-1 sequence. In this configuration, neither GR alone nor AP-1 alone (either Jun homodimers or Jun-Fos heterodimers) activates a linked reporter gene in transfected embryonal earcinoma F9 cells (which express low levels of endogenous GR and AP-1 factors), whereas co-transfection of GR and AP-1 (Jun-Jun or Jun-Fos) produces a strong synergistic activation upon hormone addition. We transfected a luciferase reporter construct containing three copies of the G(26)A composite element, G(26)A3-Luc, into cell cultures representing each stage of the fibrosarcoma progression.

[2] = target: glucocorticoid receptor (GR) (Mus musculus, UniProt P06537); settings: NF, MF, AF and FS cells; 500 nM dexamethasone, 2 h
Description: Cells were grown in 24-well plates (Corning). The medium was changed to serum-free, phenol-red free DMEM, supplemented with insulin (5 μg/ml) and transferrin (10 μg/ml), with or without 500 nM dexamethasone for 2 h. After three washes with ice-cold PBS, cells were fixed with cold (-20° C.) methanol for 10 min, and then washed with TBS. Nonspecific binding sites were blocked in blocking buffer (BB) (TBS, 1% Triton, 1% glycine, 3% bovine serum albumin and 10% normal goat serum). […] Diaminobenzidine (Sigma) was used as a substrate for the peroxidase reaction.
To assesss the nature of the differential GR activity, we examined the ligand-dependent nuclear translocation of GR in normal dermal fibroblasts and the three progressive conditions, MF, AF and FS.

[3] = target: endogenous glucocorticoid receptor (GR) (Mus musculus, UniProt P06537)
endogenous glucocorticoid receptor (GR), sequence (P06537 whole entry): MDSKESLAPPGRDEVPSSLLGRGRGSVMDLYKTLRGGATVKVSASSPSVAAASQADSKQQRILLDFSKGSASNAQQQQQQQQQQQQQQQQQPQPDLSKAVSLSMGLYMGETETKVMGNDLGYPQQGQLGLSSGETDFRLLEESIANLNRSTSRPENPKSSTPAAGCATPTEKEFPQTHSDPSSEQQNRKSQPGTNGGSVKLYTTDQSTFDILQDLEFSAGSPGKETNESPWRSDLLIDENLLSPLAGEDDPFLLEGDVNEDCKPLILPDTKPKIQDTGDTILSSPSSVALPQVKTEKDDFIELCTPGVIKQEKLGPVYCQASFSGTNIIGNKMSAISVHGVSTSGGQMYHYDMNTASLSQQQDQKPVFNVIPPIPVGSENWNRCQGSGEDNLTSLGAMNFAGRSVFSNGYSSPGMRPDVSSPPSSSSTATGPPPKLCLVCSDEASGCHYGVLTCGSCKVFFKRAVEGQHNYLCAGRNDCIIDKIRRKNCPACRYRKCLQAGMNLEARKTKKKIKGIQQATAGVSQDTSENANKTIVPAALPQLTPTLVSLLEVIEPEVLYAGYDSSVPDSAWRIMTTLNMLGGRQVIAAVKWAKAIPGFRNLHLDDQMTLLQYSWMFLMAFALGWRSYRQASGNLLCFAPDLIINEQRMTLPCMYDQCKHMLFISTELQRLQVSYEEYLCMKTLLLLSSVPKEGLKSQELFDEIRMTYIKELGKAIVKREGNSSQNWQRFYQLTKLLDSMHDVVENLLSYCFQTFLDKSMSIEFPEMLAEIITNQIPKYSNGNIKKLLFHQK
Description: Cultures were established from skin and tumor tissues of several independent BPV transgenic mice (Sippola-Thiele et al., 1989), and maintained in Dulbecco's modified Eagle's medium (DMEM-21, high glucose formulation; Gibco-BRL) containing 8% fetal calf serum (Hyclone). Cells were propagated for no longer than five weeks and always used at low passage number (1-30). Several cultures were tested from each stage of the tumorigenic process: normal fibroblasts, NF (23784, 40950); mild fibromatosis, MF (39614, 14249, 27877); aggressive fibromatosis, AF (BPV7, BPV3, BPV21); fibrosarcoma, FS (BPV1, BPV22, BPV2, BPV11).
Cells were plated at least 12 h before transfeetion at ~0.5×10^6 cells per 6 cm dish. Reporter gene DNA (2 μg), together with the 6RZ (100 ng) as an internal control for efficiency of transfection, were introduced into cells using the DEAE-dextran method (Ausubel). Where indicated, the expression vector 6RGR was co-transfected. After exposure to the DNA/DEAE-dextran mixture, the cells were incubated for 24 h in fresh medium containing charcoal-strippedserum (Miesfeld et al., 1987) with or without 100 nM dexamethasone (Sigma). Cells were harvested and the luciferase activity measured according to the instructions of the manufacturer (Promega) and normalized for β-galactosidase expression as previously described (Miner and Yamamoto (1992) Genes Dev., 6:2491-2501). Each experiment was repeated at least six times and the results averaged.
To monitor the activity of the endogenous glucocorticoid receptor (GR) during dermal fibroblast tumorigenesis, we performed transient transfection assays using low passage primary cell lines representative of the four stages in this multistep pathway: normal dermal fibroblasts, NF; mild fibromatosis, MF; aggressive fibromatosis, AF; fibrosarcoma, FS. […] We first measured the hormone responsiveness of a reporter construct, TAT3-Luc, containing three tandem simple GREs derived from the tyrosine aminotransferase (TAT) gene (Jantzen et al., 1987).

glucocorticoid receptor (GR), sequence (P06537 whole entry): as above

C[C@@H]1C[C@H]2[C@@H]3CCC4=CC(=O)C=C[C@]4(C)[C@@]3(F)[C@@H](O)C[C@]2(C)[C@@]1(O)C(=O)CO [dexamethasone]
hormonal induction through the G(26)A element ([1]; AF cells): only a modest hormonal induction
induction of luciferase activity (G(26)A3-Luc) ([1]; tumor (FS) cells): dramatically induced
nuclear translocation of GR [2]: efficiently translocated to the nucleus
hormonal induction of luciferase activity (TAT3-Luc) ([3]; FS (fibrosarcoma) cells, 100 nM dexamethasone, 24 h): strong hormonal induction
stimulation of basal luciferase activity (TAT3-Luc) ([3]; NF, MF or AF cell lines, 100 nM dexamethasone, 24 h): only a modest stimulation
transcriptional response (TAT3-Luc) ([3]; nNF, dermal fibroblasts from non-transgenic mice): low transcriptional response
